Assay results reported in US20250161196A1, “Antioxidant Compositions” (THE BOOTS COMPANY PLC, priority 2022, published 2025).

Test: Total Antioxidant Capacity (TAC) assay, Cell Biolabs kit, copper ion reduction, absorbance at 490 nm
Assay type: biochemical
Conditions: for Total Antioxidant Capacity (TAC): absorbance 490 nm, triplicate; for TAC of the individual antioxidant agent: Table 1 / FIG. 1, single agent alone
Procedure: Total antioxidant capacity (TAC) was determined using a kit (Cell Biolabs, Inc) as follows; the test samples were diluted in water and a buffer to reach a final antioxidant agent to buffer ratio ranging from 1:1 to 1:1,000,000. 20 ul of test sample or control (ascorbic acid or green tea) were added to the wells of 96 well plate, followed by 180 μL of 1× Reaction Buffer (provided with the kit). The absorbance of the reaction mix in each well was measured at 490 nm to get an initial reading. 50 μL of the 1× Copper Ion Reagent (provided with the kit) were added to each well to initiate the reaction. The reaction was allowed to carry on for 5 minutes on an orbital shaker and 50 μL of 1× Stop Solution (provided with the kit) added to each well to terminate the reaction. The colour change was assessed using a plate reader at 490 nm.
The stronger the colour change at the end of the reaction, the higher the spectrophotometric value, and the higher the antioxidant capacity of the antioxidant agents.
21 antioxidant compounds were tested in triplicate at antioxidant: buffer ratios ranging from 1:1 to 1:1,000,000. […]

[1] = Antioxidant:Buffer 1:1 (concentration 1)
[2] = Antioxidant:Buffer 1:10 (concentration 0.1)
[3] = Antioxidant:Buffer 1:100 (concentration 0.01)

Row | SMILES | Total Antioxidant Capacity (TAC) [1] | Total Antioxidant Capacity (TAC) [2] | Total Antioxidant Capacity (TAC) [3] | TAC of the individual antioxidant agent
1 | O=C1O[C@H]([C@@H](O)CO)C(O)=C1O [Ascorbic Acid (Control), Ascorbic Acid, reference compound] | 2.6 | 1.6 | 0.7 | –
2 | COc1cc(/C=C/C(=O)O)ccc1O [Ferulic acid] | 1.911 | 1.808 | 1.991 | 1.583
3 | COc1cc2c(cc1O)CCC(C)(C)O2 [Dimethylmethylmethoxy chromanol, Dimethylmethoxy chromanol] | 1.839 | 1.807 | 1.824 | 1.671
